Data set [1] concerns EBOV/Mak. The settings on record: cited from earlier work; for IC50: read-out: IC50 (Huh7).
The conditions of data set [2]: human, in vivo, po, cited from earlier work.
In data set [3] the test system is EBOV. In words: microbe, parasite or virus in culture. The data set is classed as cell-based, Ebola virus. The settings on record: Zaire ebolavirus, read-out: IC50 (average) (μM).
Data set [4] concerns EBOV. The conditions noted are these: mouse, in vivo, cited from earlier work.
The subject of the next data set is VSV-EBOV-GPΔ-Luc. The data set is classed as cell-based.
A short description of data set [5]: in vivo. The settings on record: female, C57BL/6, mouse, po.
The conditions of data set [6]: mouse, in vivo; cited from earlier work.
A further data set deals with MARV. The settings on record: mouse, in vivo, ip, 12 mg/kg; cited from earlier work.
The test system of data set [7] is EBOV. The conditions noted are these: read-out: IC50 (HepG2); cited from earlier work.
The test system of data set [8] is EBOV. Further details: species or system Ebola virus.
Data set [9] deals with EBOV/Mak. The data set is classed as cell-based, Ebola virus.
The conditions of data set [10]: C57BL/6, mouse, in vivo, po; for Cmax obtained relative to prediction, fold higher: female.
The conditions of data set [11]: mouse, in vivo.
A short description of data set [12]: in vivo. The settings on record: mouse, po, 10 mg/kg.
A further data set has as its system EBOV/Mak-C05. The conditions noted are these: rhesus monkey, in vivo; cited from earlier work.
Data set [13] has as its system EBOV. Further details: species or system mice. The settings on record: mouse, in vivo.
For data set [14] the following is noted: rat, in vivo; cited from earlier work.

The values that follow come from publication PMC7998926 (Microorganisms, 2021).

Several values for one entry are separate records, joined by “and”; a condition that tells them apart may be missing. Equal values may be shown once. Entries after “also recorded” stand apart in the source; their conditions may differ. Read-outs that look alike come from different tables or passages of the source.

For orientation: IC50 means the point on the concentration scale where inhibition reaches its midpoint. A word on the Cmax: it is the peak of the concentration-time curve. For orientation: MRT means a mean duration of stay, worked out from the concentration-time curve. What is called half-life is how long it takes for the measured level to halve. Broadly, the Hill coefficient is the slope factor of the fitted curve.

For the compound `Cc1cccc(/C=N/Nc2cc(N3CCOCC3)nc(OCCc3ccccn3)n2)c1` [Apilimod], the IC50 with EBOV/Mak [1] and with EBOV [3] was 0.17 µM each time. Besides, the Cmax in data set [2] (70 mg) was 260 nM.

For `O=C1CCc2ccc(OCCCCN3CCN(c4cccc(Cl)c4Cl)CC3)cc2N1` [Aripiprazole], in the data set on EBOV [4] (ip, 20 mg/kg), the “Survival (%)” value was 10 ^1% and the “somnolence in treated mice” value is listed as “extremely somnolent”. In addition, in data set [2] (30 mg), the Cmax is 1010 nM.

For the compound `CC[C@H]1OC(=O)[C@H](C)[C@@H](O[C@H]2C[C@@](C)(OC)[C@@H](O)[C@H](C)O2)[C@H](C)[C@@H](O[C@@H]2O[C@H](C)C[C@H](N(C)C)[C@H]2O)[C@](C)(O)C[C@@H](C)CN(C)[C@H](C)[C@@H](O)[C@]1(C)O` [Azithromycin], the IC50 in the data set with EBOV/Mak [1] and in the data set on EBOV [3] was 10.8 µM in each case. Further, the “Survival (%)” value in the data set on EBOV [4] (ip, 100 mg/kg) is 10, 30, 60 ^2%. Further, in [2] (500 mg), the Cmax is 640 nM.

As for `CC(C)COCC(CN(Cc1ccccc1)c1ccccc1)N1CCCC1` (stereo not drawn) [Bepridil], the “inhibitory activity over time (stability in V8)” value in the data set with VSV-EBOV-GPΔ-Luc was “maintained inhibitory activity over 15 days”. In the data set “in vivo [5]” (150 mg/kg), this compound showed a mean residence time MRT of 6 h and a half-life of 0.5 h. Besides, in the data set “in vivo [5]” (500 mg/kg), the MRT was found to be 9 h and the half-life was 0.5 h. Further, in [6], the “Oral LD50” value is given as 2069 mg/kg. In the data set with EBOV/Mak [1], the Hill coefficient is recorded as 4.859 and the IC50 was 5.86 µM. In the data set on MARV, the “Survival (%)” value was 90 ^4% and the mice protected is on record as 80%. Also, the IC50 in the data set with EBOV [7] was 3.21 µM. Further, the “mi (hill coefficient of drug i applied in combination)” value in the data set with EBOV [8] turned out to be 4.043. Also, the “possible loss of potency” value in the data set with EBOV/Mak [9] is below 2 fold. In the data set with EBOV [4] (ip, 12 mg/kg), the “Survival (%)” value is 100% and 100 ^3%; the survival was 90-100%. In data set [10], the Cmax was around 3000 nM and the “Cmax obtained relative to prediction, fold higher” value is reported as ~ 1.8 fold. Also, the Cmax in [2] (400 mg) is 2430 nM. The IC50 in the data set on EBOV [3] was around 4 µM. Besides, in data set [11], the tolerability entry is reported as “well tolerated”.

On to `CCN(CC)CCOc1ccc(C(=C(Cl)c2ccccc2)c2ccccc2)cc1` [Clomiphene], for which the protection was 60% and 40% in the data set with EBOV [4] (ip, 12 mg/kg); “no mice were protected” with EBOV [4] (po, 21 mg/kg). The Cmax in data set [2] (50 mg) was 50 nM.

On to `CC(=O)c1ccc2c(c1)N(CCCN1CCC(CCO)CC1)c1ccccc1S2` [Piperacetazine], for which the IC50 in the data set with EBOV/Mak [1] was 7.58 µM; in the data set on EBOV [7], 3.3 µM; with EBOV [3], 5.44 µM.

`CN[C@H]1CC[C@@H](c2ccc(Cl)c(Cl)c2)c2ccccc21` [Sertraline]: the figures for the MRT in “in vivo [5]” (30 mg/kg) and in “in vivo [5]” (60 mg/kg) were 11 h and 5 h, respectively. Further, the half-life in the data set “in vivo [5]” (30 mg/kg) and in the data set “in vivo [5]” (60 mg/kg) was 1 h in each case. In addition, the “Oral LD50” value in data set [6] is listed as 336 mg/kg. For the same compound, the Hill coefficient with EBOV/Mak [1] was 1.628. Further, in the data set on EBOV [8], the “mi (hill coefficient of drug i applied in combination)” value was 2.736 and 1.996. Besides, the Cmax was 430 nM in the data set “in vivo [12]”, around 1200 nM in data set [10] and 540 nM in data set [2] (200 mg). Moreover, the “Survival (%)” value in the data set with EBOV [4] (ip, 10 mg/kg) is reported as 70%. For the same compound, the “Cmax obtained relative to prediction, fold higher” value in data set [10] is given as ~ 1.2 fold. Besides, the protection result in the data set on EBOV/Mak-C05 was “not effective; also recorded: did not protect macaques”. In addition, the tolerability entry in data set [11] is reported as “well tolerated”. Also, the predicted survival with EBOV [13] is recorded as ~ 35%.

On to `CN(C)CCOc1ccc(/C(=C(/CCCl)c2ccccc2)c2ccccc2)cc1` [Toremifene], for which, in the data set with VSV-EBOV-GPΔ-Luc, the “inhibitory activity over time (stability in V8)” value is given as “began to lose activity after ~1 week”. For the same compound, the Cmax was 498 ng/mL in “in vivo [5]” (100 mg/kg); 1300 ng/mL in the data set “in vivo [5]” (200 mg/kg); 160 nM in “in vivo [12]”; around 4400 nM in data set [10]; 1970 nM in [2] (60 mg). For the same compound, the values for the MRT in “in vivo [5]” (100 mg/kg) and in “in vivo [5]” (200 mg/kg) were 6 h and 16 h, respectively. Moreover, the figures for the half-life in “in vivo [5]” (100 mg/kg) and in “in vivo [5]” (200 mg/kg) were 0.5 h and 0.2 h, respectively. Also, the Hill coefficient in the data set with EBOV/Mak [1] is 3.057. The IC50 was 3.64 µM in the data set with EBOV/Mak [1], 0.03 µM with EBOV [7] and 1.8 µM in the data set on EBOV [3]. The “mi (hill coefficient of drug i applied in combination)” value with EBOV [8] is reported as 1.628. For the same compound, the “Survival (%)” value in the data set with EBOV [4] (ip, 60 mg/kg) is reported as 50%. For the same compound, the tolerability result in data set [11] was “well tolerated”. In data set [14], the “Oral LD50” value is recorded as 3000 mg/kg. Moreover, the “approximated protection of infected mice” value in the data set on EBOV [13] is ~ 50%. Moreover, in the data set on EBOV [13], the estimated survival was ~ 50%. Further, the predicted survival with EBOV [13] is reported as ~ 7%.
